Experimental data published in patent US6203976A, “Methods of preparing compositions comprising chemicals capable of transcriptional modulation” (OSI Pharmaceuticals, Inc., priority 1994, dated 2001).
Values joined by “and” are separate entries in the source; they are usually repeats but may differ in a detail not shown here. Identical values can stand only once. Like-named read-outs stand apart in the source and are kept apart here.

Key:
[1] = tested on: MMTV (M10) promoter; assay: High-throughput luciferase reporter assay, MMTV promoter (Screen III); format: cell-based, mouse; details: for FOLD INDUCTION RELATIVE TO SOLVENT CONTROL, MMTV: Screen III activators
Protocol: pMluci and pSV2Neo, an antibiotic resistance plasmid (112), were co-transfected into NIH/3T3 mouse fibroblast cells using the calcium phosphate precipitation method (103) with a commercially available kit (Pharmacia, Piscataway N.J.). Two days later, cells were transferred to media containing 0.4 mg/ml G418 and were grown for an additional 10-14 days. G418-resistant clones were isolated by standard methods. Once sufficient cell numbers were obtained, clones were analyzed based on several criteria: constitutive luciferase production, induction of luciferase expression by dexamethasone (1 μm, Sigma, St. Louis, Mo.), satisfactory attachment to microtiter plates used in the high-throughput screen and acceptable standard deviation in multiple luciferase expression assays (see below for assay protocol). This analysis was carried out using the luciferase assay conditions described above. Of the clones which satisfied the above criteria for the high throuphput screen, one clone, M10, was selected for use.

[2] = tested on: human growth hormone (532) promoter; assay: High-throughput luciferase reporter assay, human Growth Hormone promoter (Screen III); format: cell-based; details: for FOLD INDUCTION RELATIVE TO SOLVENT CONTROL, hGH: Screen III activators
[3] = tested on: human G-CSF (G21) promoter; assay: High-throughput luciferase reporter assay, G-CSF promoter (Screen III); details: for scored as positive in repeat assays, G-CSF: 48 independent luciferase assays performed on the same day; for FOLD INDUCTION RELATIVE TO SOLVENT CONTROL, GCSF: Screen III activators; for FOLD INDUCTION RELATIVE TO SOLVENT CONTROL, GCSF / FOLD INHIBITION RELATIVE TO SOLVENT CONTROL, GCSF: G21 cells, 6 hours; for FOLD INHIBITION RELATIVE TO SOLVENT CONTROL, GCSF: Screen III inhibitors
[4] = Screen III inhibitors, M10 cells, 6 hours
[5] = Screen III inhibitors, 532 cells, 6 hours

| Structure (SMILES) | FOLD INDUCTION RELATIVE TO SOLVENT CONTROL, MMTV ([1]; M10 cells, 6 hours) [fold] | FOLD INDUCTION RELATIVE TO SOLVENT CONTROL, hGH ([2]; 532 cells, 6 hours) [fold] | FOLD INDUCTION RELATIVE TO SOLVENT CONTROL, GCSF [3] [fold] | other results |
| --- | --- | --- | --- | --- |
| CC(=O)n1ccnc1 [Chemical #58, 1-Acetylimidazole] | 0.42 | 0.17 | 6.03 | scored as positive in repeat assays, G-CSF [3]: scored as positives in every single one of these assays |
| CC(=O)N(C)c1ccc(N)cc1 [Chemical #1374, 4'-Amino-N-methylacetanilide] | 1.05 | 0.05 | 11.03 | scored as positive in repeat assays, G-CSF [3]: scored as positives in every single one of these assays |
| CN(C)c1ccc(C(=C2C=CC(=[N+](C)C)C=C2)c2ccc(N(C)C)cc2)cc1 [Chemical #1780, Crystal Violet] | 1.15 | 0.38 | 20.39 | scored as positive in repeat assays, G-CSF [3]: scored as positives in every single one of these assays |
| O=NN(O)c1ccccc1 [Chemical #1783, Cupferron] | 0.89 | 0.32 | 6.55 | scored as positive in repeat assays, G-CSF [3]: scored as positive only in half of the 48 repeat assays |
| CC(=O)c1c(C)cc(NC(C)(C)C)nc1NC(C)(C)C [compound 40] | 0.27 | 0.62 | 5.62 | – |
| CC(=O)c1ccc[nH]1 [compound 70] | 0.85 | 9.26 | 0.43 | – |
| CN(C)c1ccc2cc3ccc(N(C)C)cc3nc2c1 [compound 80] | 0.83 | 0.66 | 5.87 | – |
| CN(C)c1ccc(C(=N)c2ccc(N(C)C)cc2)cc1 [compound 183] | – | – | – | FOLD INHIBITION RELATIVE TO SOLVENT CONTROL, MMTV [1, 4]: 0.70 fold; FOLD INHIBITION RELATIVE TO SOLVENT CONTROL, hGH [2, 5]: 4.00 fold; FOLD INHIBITION RELATIVE TO SOLVENT CONTROL, GCSF [3]: 0.72 fold |
| O=C(c1ccccc1)c1ccncc1 [compound 209] | – | – | – | FOLD INHIBITION RELATIVE TO SOLVENT CONTROL, MMTV [1, 4]: 0.81 fold; FOLD INHIBITION RELATIVE TO SOLVENT CONTROL, hGH [2, 5]: 1.08 fold |
| CCOC(=O)N1C(=O)c2ccccc2C1=O [compound 237] | 0.62 | 0.06 | 4.77 | – |
| Cc1c(C(=O)O)c(O)cc2c1C(=O)c1c(O)c([C@@H]3O[C@H](CO)[C@@H](O)[C@H](O)[C@H]3O)c(O)c(O)c1C2=O [compound 240] | – | – | – | FOLD INHIBITION RELATIVE TO SOLVENT CONTROL, MMTV [1, 4]: 0.80 fold; FOLD INHIBITION RELATIVE TO SOLVENT CONTROL, hGH [2, 5]: 5.26 fold; FOLD INHIBITION RELATIVE TO SOLVENT CONTROL, GCSF [3]: 0.63 fold |
| ClCCN1CCCCC1 [compound 254] | 0.98 | 0.90 | 4.09 | – |
| NC(=O)N1c2ccccc2CCc2ccccc21 [compound 299] | 0.47 | 5.46 | 0.53 | – |
| CCn1c(=O)[nH]c2ccccc21 [compound 322] | 1.12 | 11.18 | 0.60 | – |
| O=c1c(O)c(-c2ccc(O)c(O)c2)oc2cc(O)ccc12 [compound 325] | 1.0 | 5.42 | 0.14 | – |
| Nc1nc(N)nc(N)n1 [compound 364] | 1.07 | 1.18 | 3.67 | – |
| O=c1c(O)c(-c2ccc(O)cc2O)oc2cc(O)cc(O)c12 [compound 371] | – | – | – | FOLD INHIBITION RELATIVE TO SOLVENT CONTROL, MMTV [1, 4]: 0.89 fold; FOLD INHIBITION RELATIVE TO SOLVENT CONTROL, hGH [2, 5]: 0.41 fold |
| O=C(O)c1ccc2c3c(ncnc13)-c1ccccc1C2=O [compound 378] | 0.59 | 0.26 | 4.12 | – |
| CCN(CC)CCCC(C)Nc1c2ccc(Cl)cc2nc2ccc(OC)cc12 (stereo not shown) [compound 423] | 0.64 | 0.56 | 2.39 | – |
| O=c1ccc2[n+]([O-])c3ccc(O)cc3oc-2c1 [compound 427] | 0.71 | 0.43 | 3.14 | – |
| Cc1cc(C)nc(NS(=O)(=O)c2ccc(N)cc2)n1 [compound 443] | – | – | – | FOLD INHIBITION RELATIVE TO SOLVENT CONTROL, MMTV [1, 4]: 0.79 fold; FOLD INHIBITION RELATIVE TO SOLVENT CONTROL, hGH [2, 5]: 4.76 fold; FOLD INHIBITION RELATIVE TO SOLVENT CONTROL, GCSF [3]: 0.60 fold |
| c1ccc(-c2cccc(-c3ccccn3)n2)nc1 [compound 453] | – | 0.58 | 0.79 | FOLD INDUCTION RELATIVE TO SOLVENT CONTROL, MMTV ([1]; M10 cells, 6 hours, 360 min): 13.3 fold and 13.30 fold; ability to activate the MMTV promoter with methanol replacing DMSO ([1]; chemical dissolved in methanol instead of DMSO): did not affect its ability to activate the MMTV promoter |
| c1ncncn1 [compound 473] | 0.87 | 0.50 | > 3 | – |
| C[C@]12C=CC(=O)C=C1CC[C@@H]1[C@@H]2[C@@H](O)C[C@@]2(C)[C@H]1CC[C@]2(O)C(=O)CO [compound 764] | – | – | – | FOLD INHIBITION RELATIVE TO SOLVENT CONTROL, MMTV [1]: 0.59; FOLD INHIBITION RELATIVE TO SOLVENT CONTROL, hGH [2]: 4.54 |
| NC(=O)c1ccccc1O [compound 798] | – | – | – | FOLD INHIBITION RELATIVE TO SOLVENT CONTROL, MMTV [1, 4]: 0.68 fold; FOLD INHIBITION RELATIVE TO SOLVENT CONTROL, hGH [2, 5]: 0.90 fold |
| Cc1n[nH]cc1Br [compound 2082] | – | – | – | FOLD INHIBITION RELATIVE TO SOLVENT CONTROL, MMTV [1, 4]: 1.23 fold; FOLD INHIBITION RELATIVE TO SOLVENT CONTROL, hGH [2, 5]: 0.65 fold |
| ClCCCCCBr [compound 2097] | 1.22 | 0.88 | – | – |
| OCc1cccc(Cl)c1 [compound 2121] | – | – | – | FOLD INHIBITION RELATIVE TO SOLVENT CONTROL, MMTV [1, 4]: 1.14 fold; FOLD INHIBITION RELATIVE TO SOLVENT CONTROL, hGH [2, 5]: 0.40 fold |
